Assay results published in paper PMC9081329, “Pharmacokinetics, Mass Balance, Excretion, and Tissue Distribution of Plasmalogen Precursor PPI-1011” (Frontiers in Cell and Developmental Biology, 2022).

Assay: Single dose tissue distribution study (QWBA, LSC of blood and plasma)
Assay type: in vivo, Sprague-Dawley rats
Protocol: Six male rats were administered a single oral dose of [^14C]PPI-1011 at 100 mg/kg (200 μCi/kg) and one rat was sacrificed at each of the following time points after the administration of the dose: 8, 12, 18, 24, 48, or 168 h. Terminal blood was collected by cardiac puncture directly into tubes with K2EDTA, an aliquot was stored at 4°C until LSC was performed for radioactivity, while the remaining blood was processed to plasma and stored at −20°C until LSC. Following blood collection, the carcasses were frozen in a cold bath with hexanes and dry ice for at least 8 min and then dried and stored at −70°C for at least 5 h. The carcasses were transferred to a −20°C freezer for at least 12 h before embedding.
QWBA was used to determine radioactivity concentrations in the caecum (contents and mucosa), large intestine (contents and mucosa), small intestine (contents and mucosa), stomach (contents and mucosa), brain, choroid plexus, spinal cord, bone, skin, adrenal gland, pineal body, pituitary gland, thyroid gland, liver, kidney (cortex, medulla and whole kidney), urinary bladder (contents and wall), brown fat, white fat, eye (lens, uveal tract and whole eye), epididymis, prostate gland, testis, ovary, uterus, lung, exorbital lachrymal gland, Harderian gland, pancreas, salivary gland, skeletal muscle, myocardium, cardiac blood, bone marrow, lymph node, spleen, and thymus. As well, LSC was used to determine the total radioactivity in the whole blood and plasma.
The whole-body cryosectioning technique described by ([Ullberg, 1977]) was the basis for embedding and cryosectioning the rats assigned to this study. Each frozen carcass was shaved, and then the limbs and tail were removed prior to embedding. Chilled (4°C) 3% CMC (low viscosity) was utilized to provide a firm support of reinforced ice around each rat and for a secure attachment to the microtome stage. Upon thorough freezing of the embedding medium surrounding each rat, the frozen CMC block was removed from the freezing bath and four 3/8 inch holes were drilled into the block. One cryosection quality control standard (CQCS) was prepared with a known amount of radioactivity and at least 1 ml aliquots were added to each of the four drilled holes. CQCS data were utilized to evaluate the overall performance of the QWBA assay.
Each frozen rat was sagittally trimmed (50–100 μm) at −20°C until exposure of a few target tissues employing a Leica Cryomacrocut heavy-duty microtome (Leica Microsystems Inc.,). Disposable stainless steel Feather type H45L knives (Feather Safety Razor Co., Ltd.) were utilized for trimming and sectioning each frozen rat. Several thinner sections (50 μm) were discarded prior to obtaining multiple 50 μm sections at various cryosectioning levels for QWBA analysis. Upon the collection of at least 60 target tissues in multiple cryosectioning levels, the cryosections were kept in the Cryomacrocut cryochamber for a minimum of 18 h for dehydration depending upon the number of cryosections within the cryochamber. After dehydration was complete, the cryosections were transferred to ambient temperature for processing. Mounted whole-body cryosections and a set of 15 standards were sandwiched between a standard phosphor screen and an exposure cassette. All cryosections were exposed to the phosphor screen for 4-days in a cabinet protected with lead prior to scanning using a Typhoon PhosphorImager (Cytiva). MCID™ Analysis software (InterFocus Ltd.) was utilized to generate a calibration curve of the STD nominal concentrations (nCi/g) versus PhosphorImager response (counts/μm^2 minus background) by weighted (1/x) linear regression analysis ([Potchoiba et al., 1995]; [Potchoiba et al., 1998]). The linear regression curve was then utilized to determine the concentration (nCi/g) of total radioactivity in whole-body tissues and blood. Radioactivity concentrations were expressed as μg Eq/g based on the specific activity of the compound in the final dose formulations. […]

[1] = 12 h post single oral 100 mg/kg

In the case of `CC/C=C\C/C=C\C/C=C\C/C=C\C/C=C\C/C=C\CCC(=O)O[C@H](CO[14CH2]CCCCCCCCCCCCCCC)COC(=O)CCCCC1CCSS1` (stereo partly shown) [[^14C]PPI-1011], the “Blood:plasma concentration ratio” value (168 HPD, single dose) is reported as 2.96, the “Radioactivity concentration, Adipose - Brown” value (8 h post single oral 100 mg/kg) is reported as 171 μg equivalents/g and the “Radioactivity concentration, Adipose - Brown (Vessel Wall)” value (8 h post single oral 100 mg/kg) is reported as 301 μg equivalents/g. The “Radioactivity concentration, Adipose - Subcutaneous” value (8 h post single oral 100 mg/kg) was 74.0 μg equivalents/g, the “Radioactivity concentration, Adipose - Visceral” value (8 h post single oral 100 mg/kg) was 83.1 μg equivalents/g and the “Radioactivity concentration, Adrenal Gland” value (8 h post single oral 100 mg/kg) was 195 μg equivalents/g. For the same compound, the “Radioactivity concentration, Bladder Wall” value (8 h post single oral 100 mg/kg) was 86.0 μg equivalents/g, the “Radioactivity concentration, Blood - QWBA” value (8 h post single oral 100 mg/kg) was 35.4 μg equivalents/g and the “Radioactivity concentration, Bone Marrow” value (8 h post single oral 100 mg/kg) was 23.5 μg equivalents/g. For the same compound, the “Radioactivity concentration, Bone Surface” value (8 h post single oral 100 mg/kg) was 2.30 μg equivalents/g, the “Radioactivity concentration, Cerebellum” value (8 h post single oral 100 mg/kg) was 2.70 μg equivalents/g and the “Radioactivity concentration, Cerebrum” value (8 h post single oral 100 mg/kg) was 2.39 μg equivalents/g. For the same compound, the “Radioactivity concentration, Choroid Plexus” value (8 h post single oral 100 mg/kg) was 14.9 μg equivalents/g, the “Radioactivity concentration, Colliculus” value (8 h post single oral 100 mg/kg) was 3.50 μg equivalents/g and the “Radioactivity concentration, Diaphragm” value (8 h post single oral 100 mg/kg) was 55.6 μg equivalents/g. The “Radioactivity concentration, Epididymis” value (8 h post single oral 100 mg/kg) was 39.8 μg equivalents/g, the “Radioactivity concentration, Esophagus” value (8 h post single oral 100 mg/kg) was 17.4 μg equivalents/g and the “Radioactivity concentration, Exorbital Lacrimal Gland” value (8 h post single oral 100 mg/kg) was 28.7 μg equivalents/g. The “Radioactivity concentration, Gastric Mucosa” value (8 h post single oral 100 mg/kg) was 91.2 μg equivalents/g, the “Radioactivity concentration, Harderian Gland” value (8 h post single oral 100 mg/kg) was 14.4 μg equivalents/g and the “Radioactivity concentration, Intra-Orbital Lacrimal Gland” value (8 h post single oral 100 mg/kg) was 10.4 μg equivalents/g. For the same compound, the “Radioactivity concentration, Kidney” value (8 h post single oral 100 mg/kg) was 42.9 μg equivalents/g, the “Radioactivity concentration, Large Intestines” value (8 h post single oral 100 mg/kg) was 12.5 μg equivalents/g and the “Radioactivity concentration, Liver” value (8 h post single oral 100 mg/kg) was 313 μg equivalents/g. For the same compound, the “Radioactivity concentration, Lung” value (8 h post single oral 100 mg/kg) was 74.0 μg equivalents/g, the “Radioactivity concentration, Lymph Node” value (8 h post single oral 100 mg/kg) was 22.7 μg equivalents/g and the “Radioactivity concentration, Medulla Oblongata” value (8 h post single oral 100 mg/kg) was 2.40 μg equivalents/g. For the same compound, the “Radioactivity concentration, Muscle” value (8 h post single oral 100 mg/kg) was 10.3 μg equivalents/g, the “Radioactivity concentration, Myocardium” value (8 h post single oral 100 mg/kg) was 92.0 μg equivalents/g and the “Radioactivity concentration, Nasal Turbinates” value (8 h post single oral 100 mg/kg) was 16.0 μg equivalents/g. For the same compound, the “Radioactivity concentration, Ocular - Uveal Tract” value (8 h post single oral 100 mg/kg) was 6.97 μg equivalents/g, the “Radioactivity concentration, Ocular - Whole Eye” value (8 h post single oral 100 mg/kg) was 1.83 μg equivalents/g and the “Radioactivity concentration, Olfactory Bulb” value (8 h post single oral 100 mg/kg) was 2.16 μg equivalents/g. For the same compound, the “Radioactivity concentration, Pancreas” value (8 h post single oral 100 mg/kg) was 66.3 μg equivalents/g, the “Radioactivity concentration, Parotid Gland” value (8 h post single oral 100 mg/kg) was 39.1 μg equivalents/g and the “Radioactivity concentration, Pineal Gland” value (8 h post single oral 100 mg/kg) was 11.9 μg equivalents/g. The “Radioactivity concentration, Pituitary Gland” value (8 h post single oral 100 mg/kg) was 21.2 μg equivalents/g, the “Radioactivity concentration, Preputial Gland” value (8 h post single oral 100 mg/kg) was 33.6 μg equivalents/g and the “Radioactivity concentration, Prostate” value (8 h post single oral 100 mg/kg) was 49.6 μg equivalents/g. For the same compound, the “Radioactivity concentration, Renal Cortex” value (8 h post single oral 100 mg/kg) was 41.4 μg equivalents/g, the “Radioactivity concentration, Renal Medulla” value (8 h post single oral 100 mg/kg) was 51.0 μg equivalents/g and the “Radioactivity concentration, Salivary Gland” value (8 h post single oral 100 mg/kg) was 53.3 μg equivalents/g. For the same compound, the “Radioactivity concentration, Seminal Vesicles” value (8 h post single oral 100 mg/kg) was 12.8 μg equivalents/g, the “Radioactivity concentration, Skin - Non-Pigmented” value (8 h post single oral 100 mg/kg) was 15.0 μg equivalents/g and the “Radioactivity concentration, Small Intestines” value (8 h post single oral 100 mg/kg) was 609 μg equivalents/g. The “Radioactivity concentration, Spinal Cord” value (8 h post single oral 100 mg/kg) was 2.71 μg equivalents/g, the “Radioactivity concentration, Spleen” value (8 h post single oral 100 mg/kg) was 105 μg equivalents/g and the “Radioactivity concentration, Stomach” value (8 h post single oral 100 mg/kg) was 22.6 μg equivalents/g. For the same compound, the “Radioactivity concentration, Testis” value (8 h post single oral 100 mg/kg) was 2.65 μg equivalents/g, the “Radioactivity concentration, Thalamus” value (8 h post single oral 100 mg/kg) was 2.27 μg equivalents/g and the “Radioactivity concentration, Thymus” value (8 h post single oral 100 mg/kg) was 10.7 μg equivalents/g. For the same compound, the “Radioactivity concentration, Thyroid” value (8 h post single oral 100 mg/kg) was 49.9 μg equivalents/g, the “Radioactivity concentration, Whole Brain” value (8 h post single oral 100 mg/kg) was 2.60 μg equivalents/g and the “Radioactivity concentration, Adipose - Brown” value [1] was 426 μg equivalents/g. The “Radioactivity concentration, Adipose - Brown (Vessel Wall)” value [1] was 383 μg equivalents/g, the “Radioactivity concentration, Adipose - Subcutaneous” value [1] was 242 μg equivalents/g and the “Radioactivity concentration, Adipose - Visceral” value [1] was 170 μg equivalents/g. For the same compound, the “Radioactivity concentration, Adrenal Gland” value [1] was 367 μg equivalents/g, the “Radioactivity concentration, Bladder Wall” value [1] was 19.3 μg equivalents/g and the “Radioactivity concentration, Blood - QWBA” value [1] was 16.4 μg equivalents/g. For the same compound, the “Radioactivity concentration, Bone Marrow” value [1] was 23.0 μg equivalents/g, the “Radioactivity concentration, Bone Surface” value [1] was 1.15 μg equivalents/g and the “Radioactivity concentration, Cecum” value [1] was 450 μg equivalents/g. For the same compound, the “Radioactivity concentration, Cerebellum” value [1] was 2.69 μg equivalents/g, the “Radioactivity concentration, Cerebrum” value [1] was 2.22 μg equivalents/g and the “Radioactivity concentration, Choroid Plexus” value [1] was 17.1 μg equivalents/g. For the same compound, the “Radioactivity concentration, Colliculus” value [1] was 3.03 μg equivalents/g, the “Radioactivity concentration, Diaphragm” value [1] was 59.9 μg equivalents/g and the “Radioactivity concentration, Epididymis” value [1] was 70.9 μg equivalents/g. The “Radioactivity concentration, Esophagus” value [1] was 16.9 μg equivalents/g, the “Radioactivity concentration, Exorbital Lacrimal Gland” value [1] was 34.5 μg equivalents/g and the “Radioactivity concentration, Gastric Mucosa” value [1] was 67.8 μg equivalents/g. For the same compound, the “Radioactivity concentration, Harderian Gland” value [1] was 10.8 μg equivalents/g, the “Radioactivity concentration, Intra-Orbital Lacrimal Gland” value [1] was 8.89 μg equivalents/g and the “Radioactivity concentration, Kidney” value [1] was 45.3 μg equivalents/g. For the same compound, the “Radioactivity concentration, Large Intestines” value [1] was 209 μg equivalents/g, the “Radioactivity concentration, Liver” value [1] was 269 μg equivalents/g and the “Radioactivity concentration, Lung” value [1] was 51.9 μg equivalents/g. The “Radioactivity concentration, Lymph Node” value [1] was 22.6 μg equivalents/g, the “Radioactivity concentration, Medulla Oblongata” value [1] was 2.44 μg equivalents/g and the “Radioactivity concentration, Muscle” value [1] was 12.6 μg equivalents/g. The “Radioactivity concentration, Myocardium” value [1] was 72.6 μg equivalents/g, the “Radioactivity concentration, Nasal Turbinates” value [1] was 10.6 μg equivalents/g and the “Radioactivity concentration, Ocular - Uveal Tract” value [1] was 6.57 μg equivalents/g. The “Radioactivity concentration, Ocular - Whole Eye” value [1] was 2.03 μg equivalents/g.
